# Reference: patent US20090131444A1 (published 2009)
# Where a name gives a salt, the structure may show the parent alone.
row,melting point,SMILES
1,191 °C,COc1ccc2ncc(Cl)c(OC[C@@H]3CC[C@@H](NCc4cc5c(cn4)OCCO5)CO3)c2c1 (as salt: hydrochloride)
2,> 230 °C (dec.),COc1ccc2nccc(NC(=O)[C@@H]3CC[C@@H](NCc4cc5c(cn4)OCCO5)CO3)c2n1 (as salt: hydrochloride)
3,220 °C,COc1ccc2ncc(Cl)c(NC(=O)[C@@H]3CC[C@@H](NCc4cc5c(cn4)OCCO5)CO3)c2c1 (as salt: hydrochloride)
